US7786131B2, “Pyrimido[5,4-d]pyrimidines derivatives as irreversible inhibitors of tyrosine kinases” (Warner-Lambert Company, priority 1996, dated 2010)
Read-outs that look alike come from different tables or passages of the source.

How the values were obtained:
[1] = molecular target: T1, EGF receptor autophosphorylation in A431 cells (Homo sapiens, UniProt P00533); experiment: Autophosphorylation assay in A431 cells; assay type: cell-based
T1 construct: A431 human epidermoid carcinoma cells were grown in 6-well plates; endogenous in cells; host or cells: A431 human epidermoid carcinoma cells
T1 sequence (P00533 25-1210): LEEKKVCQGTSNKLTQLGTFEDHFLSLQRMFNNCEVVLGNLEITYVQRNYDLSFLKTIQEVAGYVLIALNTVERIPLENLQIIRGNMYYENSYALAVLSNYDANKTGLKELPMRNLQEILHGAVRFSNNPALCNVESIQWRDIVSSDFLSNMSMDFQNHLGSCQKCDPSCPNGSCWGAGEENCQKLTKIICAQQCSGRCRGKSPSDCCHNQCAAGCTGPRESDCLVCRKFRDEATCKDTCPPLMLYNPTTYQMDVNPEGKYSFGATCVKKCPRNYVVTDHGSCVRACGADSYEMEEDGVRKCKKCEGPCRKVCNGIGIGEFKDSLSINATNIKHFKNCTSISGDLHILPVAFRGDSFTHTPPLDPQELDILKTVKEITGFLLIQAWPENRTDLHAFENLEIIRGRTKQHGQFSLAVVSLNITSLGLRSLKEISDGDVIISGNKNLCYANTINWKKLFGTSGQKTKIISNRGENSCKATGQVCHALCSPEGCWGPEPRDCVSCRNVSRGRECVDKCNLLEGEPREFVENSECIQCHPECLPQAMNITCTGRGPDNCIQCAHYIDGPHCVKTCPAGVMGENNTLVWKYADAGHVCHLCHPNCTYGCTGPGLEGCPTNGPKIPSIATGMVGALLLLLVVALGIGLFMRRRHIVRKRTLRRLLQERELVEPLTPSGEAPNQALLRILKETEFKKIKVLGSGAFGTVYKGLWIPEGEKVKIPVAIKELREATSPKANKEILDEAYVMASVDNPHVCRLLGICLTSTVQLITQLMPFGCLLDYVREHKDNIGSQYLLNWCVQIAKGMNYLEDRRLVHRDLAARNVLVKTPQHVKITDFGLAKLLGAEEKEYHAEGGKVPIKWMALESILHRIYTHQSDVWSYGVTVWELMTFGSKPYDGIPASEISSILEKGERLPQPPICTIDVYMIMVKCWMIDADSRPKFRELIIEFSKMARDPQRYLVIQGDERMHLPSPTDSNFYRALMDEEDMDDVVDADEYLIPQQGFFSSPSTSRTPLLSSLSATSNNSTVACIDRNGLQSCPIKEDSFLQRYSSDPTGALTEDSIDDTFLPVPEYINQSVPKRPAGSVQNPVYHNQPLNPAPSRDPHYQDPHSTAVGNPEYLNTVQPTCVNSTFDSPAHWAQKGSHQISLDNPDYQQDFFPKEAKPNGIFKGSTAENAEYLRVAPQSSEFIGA
Experimental: (§1) Extracts were made by lysing the monolayers in 0.2 mL of boiling Laemlli buffer (2% sodium dodecyl sulfate, 5% beta-mercaptoethanol, 10% glycerol and 50 mM tris[hydroxymethyl]aminomethane (Tris), pH 6.8), and the lysates were heated to 100° C. for 5 minutes. Proteins in the lysate were separated by polyacrylamide gel electrophoresis and electrophoretically transferred to nitrocellulose. The membrane was washed once in 10 mM Tris, pH 7.2, 150 mM NaCl, 0.01% Azide (TNA), and blocked overnight in TNA containing 5% bovine serum albumin and 1% ovalbumin. The membrane was blotted for 2 hours with antiphosphotyrosine antibody (UBI, 1 μg/mL in blocking buffer) and then washed twice in TNA, once in TNA containing 0.05% Tween-20 detergent and 0.05% nonidet P-40 detergent and twice in TNA. […] Band intensities were determined with a Molecular Dynamics laser densitometer.
Duplicate sets of cells were treated with a range of concentrations of the designated compound to be tested as an inhibitor for 15 minutes. The cells were then stimulated with 100 ng/mL of EGF for 5 minutes and extracts made as described under the Western Blotting Procedure.

[2] = molecular target: EGF receptor tyrosine kinase (Homo sapiens, UniProt P00533); experiment: Tyrosine kinase assay, isolated EGF receptor tyrosine kinase; assay type: biochemical; conditions: read-out: EGFR Tyrosine Kinase IC50
Chain of EGF receptor tyrosine kinase (P00533 25-1210): as above

[3] = molecular target: T1, EGF receptor autophosphorylation in A431 cells; experiment: Irreversibility test: recovery of EGF receptor autophosphorylation after washout; assay type: cell-based
Experimental: as §1
Duplicate sets of cells were treated with 2 μM of designated compound to be tested as an irreversible inhibitor for either 1 or 2 hours. One set of cells was then stimulated with 100 ng/mL of EGF for 5 minutes and extracts made as described under the western blotting procedure. The other set of cells were washed free of the compound with warmed serum-free media, incubated for 2 hours, washed again, incubated another 2 hours, washed again, and then incubated a further 4 hours. This set of cells was then stimulated with EGF and extracts made similar to the first set of cells.

[4] = tested on: murine 16/c mammary adenocarcinoma; experiment: Murine 16/c mammary adenocarcinoma model; assay type: in vivo, mice; conditions: doses of up to 120 mg/kg bid
Experimental: (§2) Female nude mice (NCr nu/nu, Taconic Farms) 18-20 g were implanted SC with tumor fragments (approximately 30 mg) in the region of the right axilla on Day 0. […] The vehicle was 6% dimethyl acetamide in 50 mM lactate buffer, pH 4.0Tumor volumes were recorded three times per week by measuring the length and width of the individual tumors and calculating the mass in milligrams according to the formula (a×b^2)/2, where a and b are the length and width of the tumor. Percent T/C (treated/control) was calculated based on the ratio of the median tumor volume of the treated tumors compared with the median tumor volume of the control tumors on specified measurement days.

[5] = tested on: SK-OV-3 human ovarian carcinoma; experiment: SK-OV-3 tumor xenograft; assay type: in vivo, mice; conditions: ID dosing bid Days 10-14, 17-21, 24-28, 30 mg/kg
Experimental: as §2

[6] = tested on: A431 human epidermoid carcinoma; experiment: A431 tumor xenograft; assay type: in vivo, mice
Experimental: as §2

[7] = tested on: MCF7 human breast carcinoma; experiment: MCF-7 tumor xenograft; assay type: in vivo, mice
Experimental: as §2

[8] = tested on: NIH 3T3 fibroblast transfected with the h-EGF receptor; experiment: EGFR tumor xenograft in nude mice; conditions: EGFR tumor, IP bid for 14 days
Experimental: as §2

[9] = In vivo toxicity on IP dosing bid (no tumor named)
[10] = EGF-stimulated EGFR autophosphorylation in A431 cells
[11] = A431 cells, 2 μM inhibitor, EGFR autophosphorylation
[12] = A431 cells, 2 μM inhibitor, washed, 8 hours drug-free

With `C=CC(=O)N(CCCN1CCOCC1)c1ccc2c(Nc3cccc(Br)c3)ncnc2c1` [Example 4, N-[4-[(3-Bromophenyl)amino]quinazolin-7-yl]-N-[3-morpholinopropyl]acrylamide] the IC50 [1, 10] was 2090 nM, the IC50 ([2]; isolated EGFR kinase) was 89 nM and the melting point was 86 to 88 °C (dec.). The “% Control After 2-Hour Incubation” value [3, 11] was 55% and the “% Control After 8 Hours in Drug-Free Media Incubation” value [3, 12] was 98%.

With `C=CC(=O)Nc1ccc2ncnc(Nc3cccc(Br)c3)c2c1` [Example 11, N-[4-[(3-Bromophenyl)amino]quinazolin-6-yl]acrylamide] the activity [4] was “Inactive”, the growth delay [5] was 1.2 days and the growth delay ([6]; IP bid Days 7-11, 21-25, 28 mg/kg) was 28.2 days. It also gave a growth delay ([6]; PO once daily Days 7-21, 100 mg/kg) of 2 days, a growth delay ([6]; PO once daily Days 7-21, 200 mg/kg) of 3.5 days and a growth delay ([7]; IP bid Days 1-5, 8-12, 15-19, 28 mg/kg) of 22.9 days. The growth delay ([7]; IP bid Days 1-5, 8-12, 15-19, 47 mg/kg) was 17.4 days.

`C=CC(=O)Nc1ccc2c(Nc3cccc(C)c3)ncnc2c1` [Example 13, N-[4-(3-Methyl-phenylamino)-quinazolin-7-yl]acrylamide] showed an IC50 [1, 10] of 90 nM, an IC50 ([2]; isolated EGFR kinase) of 1.6 nM and a melting point of 269.7 to 270 °C. The “% Control After 2-Hour Incubation” value [3, 11] was 1% and the “% Control After 8 Hours in Drug-Free Media Incubation” value [3, 12] was 90%.

In the case of `C=CC(=O)Nc1ccc2ncnc(Nc3cccc(C)c3)c2c1` [Example 19, N-[4-[(3-methylphenyl)amino]quinazolin-6-yl]acrylamide], the IC50 [1, 10] is reported as 4.7 nM, the growth delay [5] is reported as 1.3 days and the growth delay ([6]; SC-Infusion (Alzet) Days 9-23, 12 mg/kg/day) is reported as 15 days. The growth delay ([6]; SC-Infusion (Alzet) Days 9-23, 24 mg/kg/day) was 14 days, the IC50 ([2]; isolated EGFR kinase) was 0.42 nM and the “% Control After 2-Hour Incubation” value [3, 11] was 0%. The “% Control After 8 Hours in Drug-Free Media Incubation” value [3, 12] was 0%, the growth delay ([8]; 48 mg/kg) was 6.4 days and the growth delay ([8]; 77 mg/kg) was 7.9 days. For the same compound, the growth delay ([8]; 124 mg/kg) was 11.8 days and the toxicity ([8]; 200 mg/kg) was “toxic”.

With `C=CC(=O)Nc1ccc2ncnc(Nc3cccc(C(F)(F)F)c3)c2c1` [Example 20, N-[4-[(3-(Trifluoromethyl)phenyl)amino]quinazolin-6-yl]acrylamide] the IC50 [1, 10] was 4.5 nM, the IC50 ([2]; isolated EGFR kinase) was 0.91 nM and the “% Control After 2-Hour Incubation” value [3, 11] was 0%. For the same compound, the “% Control After 8 Hours in Drug-Free Media Incubation” value [3, 12] was 0%.

In the case of `C=CC(=O)Nc1cc2c(Nc3cccc(Br)c3)ncnc2cc1OCCCN1CCOCC1` [Example 21, N-[4-[(3-Bromophenyl)amino]-7-[3-(4-morpholino)propoxy]quinazolin-6-yl]acrylamide], the toxicity ([9]; 48 mg/kg) is reported as “toxic”.

For `C=CC(=O)Nc1cc2c(Nc3cccc(C)c3)ncnc2cc1OCCCN1CCOCC1` [Example 22, N-[4-[(3-Methylphenyl)amino]-7-[3-(4-moroholino)-propoxy]quinazolin-6-yl]acrylamide], the IC50 [1, 10] was 27 nM, the IC50 ([2]; isolated EGFR kinase) was 1.5 nM and the melting point was 69 to 72 °C. The “% Control After 2-Hour Incubation” value [3, 11] was 0% and the “% Control After 8 Hours in Drug-Free Media Incubation” value [3, 12] was 0%.

In the case of `C=CC(=O)Nc1cc2c(Nc3cccc(C)c3)ncnc2cc1OCCCN1CCN(C)CC1` [Example 23, N-[4-[(3-Methylphenyl)amino]-7-[3-(4,N-methyl-1,N-piperazino)propoxy]quinazolin-6-yl]acrylamide], the IC50 [1, 10] is reported as 18 nM, the IC50 ([2]; isolated EGFR kinase) is reported as 2 nM and the “% Control After 2-Hour Incubation” value [3, 11] is reported as 0%. For the same compound, the “% Control After 8 Hours in Drug-Free Media Incubation” value [3, 12] was 0%.

`C=CC(=O)Nc1cc2c(Nc3cccc(Br)c3)ncnc2cc1OCCCN1CCN(C)CC1` [Example 24, N-[4-[(3-Bromophenyl)amino]-7-[3-(4,N-methyl-1,N-piperazino)propoxy]quinazolin-6-yl]acrylamide] gave an IC50 [1] of 7.9 nM, an IC50 [2] of 4 nM and a melting point of 105 to 107 °C.

In the case of `C=CC(=O)Nc1cc2c(Nc3cccc(Br)c3)ncnc2cc1OCCCn1ccnc1` [Example 25, N-[4-[(3-Bromophenyl)amino]-7-[3-(1,N-imidazyl)propoxy]quinazolin-6-yl]acrylamide], the IC50 [1] is reported as 21 nM, the IC50 [2] is reported as 3 nM and the “% Control After 2-Hour Incubation” value [3] is reported as 0%. The “% Control After 8 Hours in Drug-Free Media Incubation” value [3] was 0%.

Work on `C=CC(=O)Nc1cc2c(Nc3cccc(Br)c3)ncnc2cc1OCCCCN(C)C` [Example 26, N-[4-[(3-Bromophenyl)amino]-7-[4-(N,N-dimethyl-amino)butoxy]quinazolin-6-yl]acrylamide] yielded an IC50 [1, 10] of 3 nM, an IC50 ([2]; isolated EGFR kinase) of 1.7 nM and a melting point of 112 to 115 °C. The “% Control After 2-Hour Incubation” value [3, 11] was 0% and the “% Control After 8 Hours in Drug-Free Media Incubation” value [3, 12] was 0%.

With `C=CC(=O)Nc1cc2c(Nc3cccc(C)c3)ncnc2cn1` [Example 37, N-[4-(3-Methyl-phenylamino)-pyrido [3,4-d]pyrimidin-6-yl]acryl] the IC50 [1, 10] was 8.3 nM, the IC50 ([2]; isolated EGFR kinase) was 0.48 nM and the melting point was 221 to 223 °C (dec.). For the same compound, the “% Control After 2-Hour Incubation” value [3, 11] was 0% and the “% Control After 8 Hours in Drug-Free Media Incubation” value [3, 12] was 0%.

For `C=CS(=O)(=O)Nc1cc2c(Nc3cccc(Br)c3)ncnc2cn1` [Example 40, N-[4-(3-Bromo-phenylamino)-pyrido[3,4-d]pyrimidin-6-yl]-ethenylsulfonamide], the toxicity ([9]; 48 and 20 mg/kg) was “toxic”.

Compound `C=CC(=O)Nc1ccc2ncnc(Nc3cccc(Br)c3)c2n1` [Example 41, N-[4-(3-Bromo-phenylamino)-pyrido [3,2-d]pyrimidin-6-yl]-acrylamide] has an IC50 [1, 10] of 5.6 nM, an IC50 ([2]; isolated EGFR kinase) of 1.1 nM and a melting point of 226 to 228 °C. The “% Control After 2-Hour Incubation” value [3, 11] was 0% and the “% Control After 8 Hours in Drug-Free Media Incubation” value [3, 12] was 0%.

For `C=CC(=O)Nc1ccc2sc3c(Nc4cccc(Br)c4)ncnc3c2c1` [Example 42, N-[4-(3-Bromo-phenylamino)-benzo[b]thieno [3,2-d]pyrimidin-8-yl]acrylamide], the IC50 [1, 10] was 173 nM, the IC50 ([2]; isolated EGFR kinase) was 23 nM and the “% Control After 2-Hour Incubation” value [3, 11] was 12%. The “% Control After 8 Hours in Drug-Free Media Incubation” value [3, 12] was 50%.

In the case of `C=CC(=O)Nc1cccc2c1sc1c(Nc3cccc(Br)c3)ncnc12` [Example 43, N-[4-(3-Bromo-phenylamino)-benzo[b]thieno[3,2-d]-pyrimidin-6-yl]acrylamide], the IC50 [1, 10] is reported as 24 nM, the IC50 ([2]; isolated EGFR kinase) is reported as 1.4 nM and the “% Control After 2-Hour Incubation” value [3, 11] is reported as 0%. For the same compound, the “% Control After 8 Hours in Drug-Free Media Incubation” value [3, 12] was 0%.

Work on `C=CC(=O)Nc1ccc2c(c1)sc1c(Nc3cccc(Br)c3)ncnc12` [Example 44, N-[4-(3-Bromo-phenylamino)-benzo[b]thieno [3,2-d]pyrimidin-7-yl]acrylamide] yielded an IC50 [1, 10] of 327 nM, an IC50 ([2]; isolated EGFR kinase) of 21 nM and a melting point of 251 to 252.4 °C. The “% Control After 2-Hour Incubation” value [3, 11] was 13% and the “% Control After 8 Hours in Drug-Free Media Incubation” value [3, 12] was 42%.

In the case of `C#CC(=O)Nc1cc2c(Nc3cccc(Br)c3)ncnc2cn1` [Example 53, N-[4-(3-Bromo-phenylamino)-pyrido[3,4-d]pyrimidin-6-yl]-propynamide], the IC50 [1, 10] is reported as 52 nM, the IC50 ([2]; isolated EGFR kinase) is reported as 0.81 nM and the “% Control After 2-Hour Incubation” value [3, 11] is reported as 0%. The “% Control After 8 Hours in Drug-Free Media Incubation” value [3, 12] was 0%.

For `CC(=O)N(c1cccc(Br)c1)c1ncnc2ccc(N3C(=O)C=CC3=O)cc12` [Example 58, N-(3-Bromo-phenyl)-N-[6-(2,5-dioxo-2,5-dihydro-pyrrol-1-yl)-quinazolin-4-yl]-acetamide], the IC50 [1, 10] was over 500 nM, the IC50 ([2]; isolated EGFR kinase) was 124 nM and the melting point was 174 to 175 °C. For the same compound, the “% Control After 2-Hour Incubation” value [3, 11] was 81% and the “% Control After 8 Hours in Drug-Free Media Incubation” value [3, 12] was 95%.
